Measurements reported in patent US12391679B2, “Benzamide-substituted bicyclic imidazo- and pyrazolo-fused -pyridine, -pyrimide, and -pyridazine compounds for treatment of inflammatory diseases” (ONCO3R Therapeutics BV, priority 2019, dated 2025).

How the values were obtained:
Format in all cases: biochemical
SIK1 = molecular target: T1, SIK1 (Homo sapiens, UniProt P57059); assay: ADP-Glo kinase assay, SIK1
T1 construct: purchased Carna Biosciences 02-131
Experimental: (§1) The ADP-Glo™ kinase assay is a luminescent technology assay which measures the ADP formed from a kinase reaction. […] In a second step the kinase reactions are terminated and all the remaining ATP is depleted. In a final step the ADP is converted into ATP and this newly synthesized ATP is measured by using a luciferase/luciferin reaction. The generated light is measured using an Envision plate reader, wherein the luminescent signal obtained positively correlates with the kinase activity.
(§2) 1% DMSO and 10 μM staurosporine final concentrations are used as negative and positive controls.
(§3) 2 μL enzyme-substrate mixture is added to the assay plates.
(§4) The reaction is started by adding 2 μL diluted ATP on the assay plates. Plates are centrifuged for a few seconds at 1000 rpm and gently shaken for […] followed by an incubation at RT for 120 min.
(§5) The reactions are stopped and the unconsumed ATP is depleted by adding 5 μL ADP-Glo Reagent (Promega, Cat #V9120) to the reaction. The plates are centrifuged for a few seconds at 1000 rpm and incubated at RT for 40 min (ATP depletion).
(§6) The ADP is converted to ATP and luciferase and luciferin is introduced to detect ATP by adding 10 μL Kinase Detection Reagent (Promega, Cat #V913B+V914r) to the reaction. The plates are centrifuged for a few seconds at 1000 rpm and incubated at RT for 30 min (ADP detection).
(§7) Luminescence is measured on an Envision plate reader (PerkinElmer Inc.).

SIK2 = molecular target: T2, SIK2 (Homo sapiens, UniProt Q9H0K1); assay: ADP-Glo kinase assay, SIK2
T2 construct: purchased ThermoFisher Scientific PV4792
Experimental: as §1, §2, §3, §4, §5, §6, §7

SIK3 = molecular target: T3, SIK3 (Homo sapiens, UniProt Q9Y2K2); assay: ADP-Glo kinase assay, SIK3
T3 construct: purchased SignalChem S12-11G-100
Experimental: as §1, §2, §3, §4, §5, §6, §7

T3 sequence (Q9Y2K2 59-365 limits assumed): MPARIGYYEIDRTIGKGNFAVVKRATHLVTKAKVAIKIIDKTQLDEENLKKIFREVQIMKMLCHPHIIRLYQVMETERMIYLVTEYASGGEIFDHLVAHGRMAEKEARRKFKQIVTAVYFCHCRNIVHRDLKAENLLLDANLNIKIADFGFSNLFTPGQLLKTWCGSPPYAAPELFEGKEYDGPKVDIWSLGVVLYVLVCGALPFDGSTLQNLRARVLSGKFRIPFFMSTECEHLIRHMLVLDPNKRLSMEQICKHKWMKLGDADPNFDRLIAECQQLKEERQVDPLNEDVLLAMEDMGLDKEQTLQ
T1 sequence (P57059 whole entry): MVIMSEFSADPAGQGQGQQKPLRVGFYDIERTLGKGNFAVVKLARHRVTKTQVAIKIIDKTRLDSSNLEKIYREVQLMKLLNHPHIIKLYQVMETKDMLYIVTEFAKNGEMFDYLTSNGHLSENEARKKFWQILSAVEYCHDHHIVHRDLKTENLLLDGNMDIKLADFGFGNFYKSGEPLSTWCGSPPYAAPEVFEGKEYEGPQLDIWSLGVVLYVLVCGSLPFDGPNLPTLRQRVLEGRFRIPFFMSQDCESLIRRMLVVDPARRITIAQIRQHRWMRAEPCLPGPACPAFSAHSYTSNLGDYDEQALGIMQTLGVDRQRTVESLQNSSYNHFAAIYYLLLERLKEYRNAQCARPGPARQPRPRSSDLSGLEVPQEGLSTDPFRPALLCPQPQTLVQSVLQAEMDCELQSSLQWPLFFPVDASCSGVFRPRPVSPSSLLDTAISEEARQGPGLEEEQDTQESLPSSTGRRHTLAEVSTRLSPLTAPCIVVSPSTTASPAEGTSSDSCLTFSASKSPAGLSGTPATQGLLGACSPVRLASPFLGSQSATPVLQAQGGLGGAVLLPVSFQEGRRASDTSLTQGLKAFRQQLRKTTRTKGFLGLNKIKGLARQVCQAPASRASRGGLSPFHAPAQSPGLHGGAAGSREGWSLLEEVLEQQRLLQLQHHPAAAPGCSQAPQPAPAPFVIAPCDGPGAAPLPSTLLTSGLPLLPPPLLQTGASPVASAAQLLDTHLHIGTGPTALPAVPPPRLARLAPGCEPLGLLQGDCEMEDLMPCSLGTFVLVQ
T2 sequence (Q9H0K1 whole entry): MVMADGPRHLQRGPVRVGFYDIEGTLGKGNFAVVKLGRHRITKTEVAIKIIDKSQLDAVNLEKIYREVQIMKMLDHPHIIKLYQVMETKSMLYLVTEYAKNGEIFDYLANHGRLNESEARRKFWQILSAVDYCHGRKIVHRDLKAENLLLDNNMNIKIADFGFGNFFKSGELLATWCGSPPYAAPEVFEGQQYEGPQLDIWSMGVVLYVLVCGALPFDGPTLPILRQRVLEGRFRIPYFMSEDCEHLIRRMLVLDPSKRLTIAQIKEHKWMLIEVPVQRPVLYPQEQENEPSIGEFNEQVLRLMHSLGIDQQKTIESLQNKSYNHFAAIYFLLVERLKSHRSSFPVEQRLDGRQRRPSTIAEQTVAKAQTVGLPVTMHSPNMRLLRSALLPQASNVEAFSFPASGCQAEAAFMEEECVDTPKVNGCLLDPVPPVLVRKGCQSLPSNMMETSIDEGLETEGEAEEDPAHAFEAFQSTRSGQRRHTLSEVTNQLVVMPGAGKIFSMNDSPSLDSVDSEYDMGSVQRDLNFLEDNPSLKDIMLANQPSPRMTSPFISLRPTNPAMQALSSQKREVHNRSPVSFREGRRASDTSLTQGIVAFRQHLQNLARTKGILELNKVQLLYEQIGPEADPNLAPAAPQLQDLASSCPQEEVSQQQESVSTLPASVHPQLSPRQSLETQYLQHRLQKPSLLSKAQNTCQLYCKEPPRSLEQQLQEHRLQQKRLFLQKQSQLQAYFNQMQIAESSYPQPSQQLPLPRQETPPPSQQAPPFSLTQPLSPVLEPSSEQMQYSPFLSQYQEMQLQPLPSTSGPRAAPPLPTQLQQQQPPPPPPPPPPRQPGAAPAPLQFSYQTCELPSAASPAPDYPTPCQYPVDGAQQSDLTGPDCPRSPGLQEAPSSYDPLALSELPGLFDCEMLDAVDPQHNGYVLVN

Row | IC50 (SIK1) | IC50 (SIK2) | IC50 (SIK3) | SMILES
1 | 100 to 500 nM | 100 to 500 nM | 0.01 to 10 nM | COc1cc(-c2cnc3cc(C(F)(F)C(=O)O)ccn23)cc(OC(F)F)c1C(=O)NC1CC1 [Cpd 132, 2-[3-[4-(cyclopropylcarbamoyl)-3-(difluoromethoxy)-5-methoxy-phenyl]imidazo[1,2-a]pyridin-7-yl]-2,2-difluoro-acetic acid]
2 | > 500 nM | > 500 nM | 10 to 100 nM | COc1cc(-c2cnc3cc(C(C)(C)C#N)ccn23)cc(OC(F)F)c1C(=O)NC1CCOC1 (stereo not drawn) [Cpd 86, 4-[7-(1-cyano-1-methyl-ethyl)imidazo[1,2-a]pyridin-3-yl]-2-(difluoromethoxy)-6-methoxy-N-tetrahydrofuran-3-yl-benzamide]
3 | > 500 nM | > 500 nM | 10 to 100 nM | COc1cc(-c2cnc3cc(C(C)(C)C#N)ccn23)cc(OC(F)F)c1C(=O)N1CC(N)C1 [Cpd 103, 2-[3-[4-(3-aminoazetidine-1-carbonyl)-3-(difluoromethoxy)-5-methoxy-phenyl]imidazo[1,2-a]pyridin-7-yl]-2-methyl-propanenitrile]
4 | > 500 nM | > 500 nM | 10 to 100 nM | COc1cc(-c2cnc3cc(C(C)(C)C#N)ccn23)cc(OC(F)F)c1C(=O)NC(C)C [Cpd 78, 4-[7-(1-cyano-1-methyl-ethyl)imidazo[1,2-a]pyridin-3-yl]-2-(difluoromethoxy)-N-isopropyl-6-methoxy-benzamide]
5 | > 500 nM | > 500 nM | 10 to 100 nM | COc1cc(-c2cnc3cc(C(C)(C)C#N)ccn23)cc(OC(F)F)c1C(=O)NC1CC(F)(F)C1 [Cpd 88, 4-[7-(1-cyano-1-methyl-ethyl)imidazo[1,2-a]pyridin-3-yl]-N-(3,3-difluorocyclobutyl)-2-(difluoromethoxy)-6-methoxy-benzamide]
6 | > 500 nM | > 500 nM | 10 to 100 nM | CCC(CC)(OC)c1ccn2c(-c3cc(OC)c(C(=O)NC4CC4)c(OC(F)F)c3)cnc2c1 [Cpd 126, N-cyclopropyl-2-(difluoromethoxy)-4-[7-(1-ethyl-1-methoxy-propyl)imidazo[1,2-a]pyridin-3-yl]-6-methoxy-benzamide]
7 | > 500 nM | > 500 nM | 100 to 500 nM | COc1cc(-c2cnc3cc(C(C)(C)C#N)ccn23)cc(OC(F)F)c1C(=O)NCC1CCOC1 (stereo not drawn) [Cpd 85, 4-[7-(1-cyano-1-methyl-ethyl)imidazo[1,2-a]pyridin-3-yl]-2-(difluoromethoxy)-6-methoxy-N-(tetrahydrofuran-3-ylmethyl)benzamide]
8 | > 500 nM | > 500 nM | > 500 nM | COc1cc(-c2cnc3cc(C(C)(C)C#N)ccn23)cc(OC(F)F)c1C(=O)NC1(C(C)C)CC1 [Cpd 80, 4-[7-(1-cyano-1-methyl-ethyl)imidazo[1,2-a]pyridin-3-yl]-2-(difluoromethoxy)-N-(1-isopropylcyclopropyl)-6-methoxy-benzamide]

The next lines start with the compound.

Row | SMILES | IC50 (SIK1) | IC50 (SIK2) | IC50 (SIK3)
9 | COc1cc(-c2cnc3cc(C4COCCN4C(=O)OC(C)(C)C)ccn23)cc(OC(F)F)c1C(=O)NC1CC1 (stereo not drawn) [Cpd 186, tert-butyl 3-[3-[4-(cyclopropylcarbamoyl)-3-(difluoromethoxy)-5-methoxy-phenyl]imidazo[1,2-a]pyridin-7-yl]morpholine-4-carboxylate] | > 500 nM | > 500 nM | > 500 nM
10 | COc1cc(-c2cnc3cc(C4(C(=O)O)CC4)ccn23)cc(OC(F)F)c1C(=O)NC1CC1 [Cpd 114, 1-[3-[4-(cyclopropylcarbamoyl)-3-(difluoromethoxy)-5-methoxy-phenyl]imidazo[1,2-a]pyridin-7-yl]cyclopropanecarboxylic acid] | > 500 nM | > 500 nM | 10 to 100 nM
11 | COc1cc(-c2cnc3cc(C4CCN4)ccn23)cc(OC(F)F)c1C(=O)NC1CC1 (stereo not drawn) [Cpd 203, 4-[7-(azetidin-2-yl)imidazo[1,2-a]pyridin-3-yl]-N-cyclopropyl-2-(difluoromethoxy)-6-methoxy-benzamide] | > 500 nM | 100 to 500 nM | 10 to 100 nM
12 | COc1cc(-c2cnc3cc(C4CCCNC4)ccn23)cc(OC(F)F)c1C(=O)NC1CC1 (stereo not drawn) [Cpd 65, N-cyclopropyl-2-(difluoromethoxy)-6-methoxy-4-[7-(3-piperidyl)imidazo[1,2-a]pyridin-3-yl]benzamide] | > 500 nM | 10 to 100 nM | 0.01 to 10 nM
13 | COc1cc(-c2cnn3cc(C(C)(C)C#N)ccc23)cc(OCCO)c1C(=O)NC1CC1 [Cpd 263, 4-[6-(1-cyano-1-methyl-ethyl)pyrazolo[1,5-a]pyridin-3-yl]-N-cyclopropyl-2-(2-hydroxyethoxy)-6-methoxy-benzamide] | > 500 nM | > 500 nM | 100 to 500 nM
14 | COc1cc(-c2cnc3cc(C4(Cl)COC4)ccn23)cc(OC(F)F)c1C(=O)NC1CC1 [Cpd 217, 4-[7-(3-chlorooxetan-3-yl)imidazo[1,2-a]pyridin-3-yl]-N-cyclopropyl-2-(difluoromethoxy)-6-methoxy-benzamide] | > 500 nM | 100 to 500 nM | 10 to 100 nM
15 | COc1cc(-c2cnc3cc(C(O)C4CCC4)ccn23)cc(OC(F)F)c1C(=O)NC1CC1 (stereo not drawn) [Cpd 199, 4-[7-[cyclobutyl(hydroxy)methyl]imidazo[1,2-a]pyridin-3-yl]-N-cyclopropyl-2-(difluoromethoxy)-6-methoxy-benzamide] | > 500 nM | > 500 nM | 10 to 100 nM
16 | COc1cc(-c2cnc3cc(C(C)(C)O)ccn23)cc(OC)c1C(=O)NCC(F)(F)F [Cpd 57, 4-[7-(1-hydroxy-1-methyl-ethyl)imidazo[1,2-a]pyridin-3-yl]-2,6-dimethoxy-N-(2,2,2-trifluoroethyl)benzamide] | > 500 nM | > 500 nM | 10 to 100 nM
17 | COc1cc(-c2cnn3cc(C(C)(C)C#N)ccc23)cc(F)c1C(=O)NC1CC1 [Cpd 252, 4-[6-(1-cyano-1-methyl-ethyl)pyrazolo[1,5-a]pyridin-3-yl]-N-cyclopropyl-2-fluoro-6-methoxy-benzamide] | > 500 nM | > 500 nM | 100 to 500 nM
18 | COc1cc(-c2cnn3cc(C(C)(C)C(N)=O)ccc23)cc(OC(F)F)c1C(=O)NC1CC1 [Cpd 244, 4-[6-(2-amino-1,1-dimethyl-2-oxo-ethyl)pyrazolo[1,5-a]pyridin-3-yl]-N-cyclopropyl-2-(difluoromethoxy)-6-methoxy-benzamide] | > 500 nM | > 500 nM | 10 to 100 nM
19 | COc1cc(-c2cnc3cc(C4(CO)CC4)ccn23)cc(OC(F)F)c1C(=O)NC1CC1 [Cpd 115, N-cyclopropyl-2-(difluoromethoxy)-4-[7-[1-(hydroxymethyl)cyclopropyl]imidazo[1,2-a]pyridin-3-yl]-6-methoxy-benzamide] | 100 to 500 nM | 10 to 100 nM | 0.01 to 10 nM
20 | COc1cc(-c2cnc3cc(C(C)(O)Cn4cncn4)ccn23)cc(OC(F)F)c1C(=O)NC1CC1 (stereo not drawn) [Cpd 194, N-cyclopropyl-2-(difluoromethoxy)-4-[7-[1-hydroxy-1-methyl-2-(1,2,4-triazol-1-yl)ethyl]imidazo[1,2-a]pyridin-3-yl]-6-methoxy-benzamide] | > 500 nM | > 500 nM | 100 to 500 nM
21 | COc1cc(-c2cnc3cc(C4CCCN4C(C)=O)ccn23)cc(OC(F)F)c1C(=O)NC1CC1 (stereo not drawn) [Cpd 198, 4-[7-(1-acetylpyrrolidin-2-yl)imidazo[1,2-a]pyridin-3-yl]-N-cyclopropyl-2-(difluoromethoxy)-6-methoxy-benzamide] | > 500 nM | > 500 nM | 10 to 100 nM
